One data set concerns Kv2.1. Kind of data set: Two-electrode voltage-clamp on Kv2.1 expressed in X. laevis oocytes. To be noted: 3 μM, n ≥ 3. In general terms: Two-electrode voltage clamp is typically applied to oocytes expressing channels or transporters.
The test system of another data set is insect channel DmNav1. In words: Two-electrode voltage-clamp on DmNav1 expressed in X. laevis oocytes. In kind it is cell-based. To be noted: 5 μM, n ≥ 4.
Data set [1] has as its system Saccharomyces cerevisiae BY4741 ∆arl1. In words: Yeast growth inhibitory assay. It is filed as cell-based. The following applies: BY4741 ∆arl1, MM medium, 24 hours, OD490nm, mean ± SEM, n ≥ 3; read-out: IC50 (growth inhibition).
A further data set deals with Kv1.3. Kind of data set: Two-electrode voltage-clamp on Kv1.3 expressed in X. laevis oocytes. To be noted: 3 μM, n ≥ 3.
For data set [2], the system named is Saccharomyces cerevisiae BY4741 ∆prm6. Kind of data set: Yeast growth inhibitory assay. The following applies: BY4741 ∆prm6, MM medium, 24 hours, OD490nm, mean ± SEM, n ≥ 3; read-out: IC50 (growth inhibition). In kind it is cell-based.
The next data set concerns Kv1.4. Kind of data set: Two-electrode voltage-clamp on Kv1.4 expressed in X. laevis oocytes. To be noted: 3 μM, n ≥ 3.
Another data set deals with Kv1.5. In words: Two-electrode voltage-clamp on Kv1.5 expressed in X. laevis oocytes. To be noted: 3 μM, n ≥ 3.
A further data set has as its system Botrytis cinerea R16. Kind of data set: Fungal growth inhibitory assay. In kind it is cell-based. The following applies: half strength PDB, 10^4 spores/mL, 48 hours, determined microscopically, n ≥ 3; read-out: IC50 (growth inhibition).
Another data set has as its system Nav1.4. Kind of data set: Two-electrode voltage-clamp on Nav1.4 expressed in X. laevis oocytes. It is filed as cell-based. The following applies: 5 μM, n ≥ 4.
Another data set relates to Fusarium oxysporum. Kind of data set: Fungal growth inhibitory assay. The following applies: half strength PDB, 10^4 spores/mL, 48 hours, determined microscopically, n ≥ 3; read-out: IC50 (growth inhibition). In kind it is cell-based.
In data set [3] the test system is Fusarium graminearum PH-1. It is filed as cell-based. To be noted: read-out: IC50 (growth inhibition).
In data set [4] the test system is Saccharomyces cerevisiae BY4743 ∆frq1. In words: Yeast growth inhibitory assay. It is filed as cell-based. The following applies: BY4743 ∆frq1, MM medium, 24 hours, OD490nm, mean ± SEM, n ≥ 3; read-out: IC50 (growth inhibition).
Data set [5] deals with Saccharomyces cerevisiae BY4741 WT. In words: Yeast growth inhibitory assay. To be noted: MM medium, ~10^6 cells/mL, 24 hours, OD490nm, mean ± SEM, n ≥ 3, read-out: IC50 (growth inhibition). It is filed as cell-based.
In the next data set the test system is hERG (Kv11.1). In words: Two-electrode voltage-clamp on hERG expressed in X. laevis oocytes. To be noted: 3 μM, n ≥ 3.

Ends that are not written are not given here.

Experimental for Kv1.3: (§1) For the expression of the voltage-gated potassium channels (rKv1.1, rKv1.2, hKv1.3, rKv1.4, rKv1.5, rKv1.6, Shaker IR, hKv3.1, rKv4.3, and hERG) in Xenopus laevis oocytes, the linearized plasmids were transcribed using the T7 or SP6 mMESSAGE-mMACHINE transcription kit (Ambion). The harvesting of stage V–VI oocytes from an anaesthetized female X. laevis frog was previously described[59]. Oocytes were injected with 50 nL of cRNA at a concentration of 1 ng/nL using a micro-injector (Drummond Scientific, USA). The oocytes were incubated in a solution containing (in mM): NaCl, 96; KCl, 2; CaCl2, 1.8; MgCl2, 2 and HEPES, 5 (pH 7.4), supplemented with 50 mg/L gentamycin sulfate.
(§2) Two-electrode voltage-clamp recordings were performed at room temperature (18–22 °C) using a Geneclamp 500 amplifier (Molecular Devices, USA) controlled by a pClamp data acquisition system (Axon Instruments, USA). Whole cell currents from oocytes were recorded 1–4 days after injection. Bath solution composition was ND96 (in mM): NaCl, 96; KCl, 2; CaCl2, 1.8; MgCl2, 2 and HEPES, 5 (pH 7.4) or HK (in mM): NaCl, 2; KCl, 96; CaCl2, 1.8; MgCl2, 2 and HEPES, 5 (pH 7.4). Voltage and current electrodes were filled with 3 M KCl. Resistances of both electrodes were kept between 0.7 and 1.5 MΩ. […] GV curves were calculated from IV relationships as follows: gK = IK/(Em−EK) with EK = (RT/zF)ln[K #0]o/[K #0]i. […]
Experimental for Kv1.4: as §1, §2
Experimental for Kv1.5: as §1, §2
Experimental for Kv2.1: as §1, §2
Experimental for hERG (Kv11.1): as §1, §2

As a reminder, the IC50 is the concentration needed to halve the response being measured. Regarding “rAtPDF2.3: Arabidopsis thaliana plant defensin AtPDF2.3 produced recombinantly in Pichia pastoris (RTCESKSHRFKGPCVSTHNCANVCHNEGFGGGKCRGFRRRCYCTRHC; ends and bridges not checked; cysteine pairing not given here)”, the “activity on Kv2.1 (Shab) at single concentration” value in the data set on Kv2.1 is recorded as “no effect”. Also, the “activity on DmNav1” value in the data set on insect channel DmNav1 is listed as “does not show activity”. Also, the IC50 in [1] worked out at 5.7 ± 0.2 µM; in data set [2], 7.6 ± 0.2 µM; with Botrytis cinerea R16, 5.8 µM; with Fusarium oxysporum, 4.4 ± 1.6 µM; in data set [3] it was 1.4 µM; in data set [4], 3.1 ± 0.1 µM. Also, in [5], the IC50 was 8.1 ± 0.9 µM. In the data set with Kv1.3, the “activity on Kv1.3 at single concentration” value is reported as “no effect”. Further, the “activity on Kv1.4 at single concentration” value in the data set with Kv1.4 is listed as “no effect”. The “activity on Kv1.5 at single concentration” value in the data set on Kv1.5 is “no effect”. Also, the “activity on Nav1.4” value in the data set with Nav1.4 is on record as “does not show activity”. For the same substance, the “activity on hERG (Kv11.1) at single concentration” value in the data set on hERG (Kv11.1) is recorded as “no effect”.

The values above are taken from PMC5004176, “The antifungal plant defensin AtPDF2.3 from Arabidopsis thaliana blocks potassium channels” (Scientific Reports, 2016).
